Measured values from the CheMixHub viscosity set.

Test: xn = mol fraction of the nth substance listed

CO + O
Conditions | viscosity [mPa·s]
303.15 K, 101.3 kPa, x2 = 0.5 | 1.177
303.15 K, 101.3 kPa, x2 = 0.5599 | 1.263
303.15 K, 101.3 kPa, x2 = 0.6148 | 1.306
303.15 K, 101.3 kPa, x2 = 0.7 | 1.39
303.15 K, 101.3 kPa, x2 = 0.7982 | 1.308
303.15 K, 101.3 kPa, x2 = 0.8 | 1.361
303.15 K, 101.3 kPa, x2 = 0.85 | 1.284
303.15 K, 101.3 kPa, x2 = 0.9043 | 1.108
303.15 K, 101.3 kPa, x2 = 0.95 | 0.999
303.15 K, 101.33 kPa, x2 = 0.1232 | 0.625
303.15 K, 101.33 kPa, x2 = 0.1599 | 0.679
303.15 K, 101.33 kPa, x2 = 0.2168 | 0.765
303.15 K, 101.33 kPa, x2 = 0.2992 | 0.874
303.15 K, 101.33 kPa, x2 = 0.3639 | 0.972
303.15 K, 101.33 kPa, x2 = 0.3948 | 1.021
303.15 K, 101.33 kPa, x2 = 0.4567 | 1.129
303.15 K, 101.33 kPa, x2 = 0.5837 | 1.31
303.15 K, 101.33 kPa, x2 = 0.8272 | 1.319
303.15 K, 101.33 kPa, x2 = 0.8782 | 1.213
303.15 K, 101.33 kPa, x2 = 0.886 | 1.185
303.15 K, 101.33 kPa, x2 = 0.9125 | 1.11
308.15 K, 101 kPa, x1 = 0.125 | 1.07
308.15 K, 101 kPa, x1 = 0.274 | 1.22
308.15 K, 101 kPa, x1 = 0.465 | 1.08
308.15 K, 101 kPa, x1 = 0.702 | 0.834
308.15 K, 101 kPa, x2 = 0.9413 | 0.9361
308.15 K, 101.3 kPa, x1 = 0.0588 | 0.894
308.15 K, 101.3 kPa, x1 = 0.1233 | 1.062
308.15 K, 101.3 kPa, x1 = 0.1943 | 1.172
308.15 K, 101.3 kPa, x1 = 0.2727 | 1.213
308.15 K, 101.3 kPa, x1 = 0.3599 | 1.18
313.15 K, 101 kPa, x1 = 0.055 | 0.78
313.15 K, 101 kPa, x1 = 0.129 | 0.974
313.15 K, 101 kPa, x1 = 0.176 | 1.021
313.15 K, 101 kPa, x1 = 0.232 | 1.078
313.15 K, 101 kPa, x1 = 0.256 | 1.067
313.15 K, 101 kPa, x1 = 0.487 | 0.973
313.15 K, 101 kPa, x1 = 0.541 | 0.911
313.15 K, 101 kPa, x1 = 0.625 | 0.815
313.15 K, 101 kPa, x1 = 0.642 | 0.807
313.15 K, 101 kPa, x1 = 0.903 | 0.545
313.15 K, 101.3 kPa, x2 = 0.0969 | 0.544
313.15 K, 101.3 kPa, x2 = 0.2006 | 0.643
313.15 K, 101.3 kPa, x2 = 0.3002 | 0.749
313.15 K, 101.3 kPa, x2 = 0.4001 | 0.861
313.15 K, 101.3 kPa, x2 = 0.5 | 0.945
313.15 K, 101.3 kPa, x2 = 0.6 | 1.022
313.15 K, 101.3 kPa, x2 = 0.7 | 1.091
313.15 K, 101.3 kPa, x2 = 0.8 | 1.054
313.15 K, 101.3 kPa, x2 = 0.85 | 0.995
313.15 K, 101.3 kPa, x2 = 0.9 | 0.907
313.15 K, 101.3 kPa, x2 = 0.95 | 0.788
318.15 K, 101 kPa, x1 = 0.125 | 0.832
318.15 K, 101 kPa, x1 = 0.274 | 0.952
318.15 K, 101 kPa, x1 = 0.465 | 0.868
318.15 K, 101 kPa, x1 = 0.702 | 0.69
318.15 K, 101 kPa, x2 = 0.9413 | 0.8181
323.15 K, 100 kPa, x1 = 0.2 | 0.832
323.15 K, 100 kPa, x1 = 0.3 | 0.86
323.15 K, 100 kPa, x1 = 0.4 | 0.848
323.15 K, 101 kPa, x1 = 0.055 | 0.64
323.15 K, 101 kPa, x1 = 0.129 | 0.785
323.15 K, 101 kPa, x1 = 0.176 | 0.818
323.15 K, 101 kPa, x1 = 0.232 | 0.857
323.15 K, 101 kPa, x1 = 0.256 | 0.849
323.15 K, 101 kPa, x1 = 0.487 | 0.796
323.15 K, 101 kPa, x1 = 0.541 | 0.746
323.15 K, 101 kPa, x1 = 0.625 | 0.678
323.15 K, 101 kPa, x1 = 0.642 | 0.673
323.15 K, 101 kPa, x1 = 0.903 | 0.475
323.15 K, 101.3 kPa, x1 = 0.9144 | 0.458
323.15 K, 101.3 kPa, x2 = 0.0969 | 0.47
323.15 K, 101.3 kPa, x2 = 0.2006 | 0.547
323.15 K, 101.3 kPa, x2 = 0.3002 | 0.628
323.15 K, 101.3 kPa, x2 = 0.4001 | 0.71
323.15 K, 101.3 kPa, x2 = 0.5 | 0.774
323.15 K, 101.3 kPa, x2 = 0.6 | 0.826
323.15 K, 101.3 kPa, x2 = 0.7 | 0.86
323.15 K, 101.3 kPa, x2 = 0.8 | 0.84
323.15 K, 101.3 kPa, x2 = 0.85 | 0.796
323.15 K, 101.3 kPa, x2 = 0.95 | 0.647
